Series [1] can be described thus: Pharmacokinetics of TXA in swine plasma after IV and IM administration. Format: in vivo, domestic pigs. The conditions noted are these: for Cmax: read-out: Cmax range; for duration of effective plasma concentration (FIG. 13): effective level about 10 to about 15 ug/ml; for time effective TXA levels are maintained (FIG. 13 legend): target about 15 ug/mL. How it is done: Studies of pharmacokinetics (PK) and pharmacodynamics (PD) of TXA were performed in swine conducted in compliance with Good Laboratory Practice (GLP) standards. All facilities and activities were accredited in accordance with GLP and ISO9001 (2015).
Eighteen domestic pigs were assigned to four test groups. Group 1: Control, IM administered with vehicle (0.9% NaCl, pH 3-4, w/v), two animals were administered 2 mL vehicle, one animal administered 4 mL vehicle.
IM injections were performed using an auto-injector. […] PK analysis was noncompartmental. Following sacrifice, animals were subjected to a full detailed necropsy and histopathological evaluation performed on injection sites and major organs.
Additional blood samples were collected for Complete Blood Count (CBC), biochemistry profile and prothrombin time/partial thromboplastin time (PT/PTT) at baseline, 1, 3, and 72 hr post dosing. For thromboelastographic (TEG) analysis blood was collected at base line, 1, 3 and 6 hr post dosing. The study was conducted over 5 separate dosing sessions. For each session the animals were acclimatized for at least 4 days prior to Central Venous Catheter (CVCs) placement procedure. All animals were sacrificed 72 hours post treatment and were subjected to a full gross necropsy. Organ samples and injection sites were collected for histopathological analysis.
Pharmacokinetic and bioanalytical analysis of Tranexamic acid, based on plasma samples, was performed. On the date of analysis, plasma samples were thawed at room temperature, along with calibration and QC samples. 50 μL of plasma were taken for analysis. Tranexamic acid and its internal standard were separated from pig plasma by protein precipitation. The samples were analyzed by a validated high-performance liquid chromatography-mass spectrometry/mass spectrometry (HPLC-MS/MS) method, using Hilic Silica 3 μm column with an electro-spray interface, in a positive ion mode.

For series [2] the following is noted: bleeding trauma patients, cited from earlier work.
The test system of the next series is fibrinolysis. The conditions noted are these: in vitro and in vivo pharmacodynamics studies (Picetti et al., 2019); cited from earlier work.
For series [3] the following is noted: cited from earlier work.
For series [4] the following is noted: adult patients with traumatic cardiac arrest, prehospital administration; cited from earlier work.

Consider three compounds from US12636249B2, “Concentrated injectable tranexamic acid compositions and methods of use thereof” (Galen Limited, priority 2022, dated 2026).

Like-named read-outs stand apart in the source and are kept apart here.

As a reminder, the Tmax is the time at which the peak concentration occurs. The Cmax is the maximum level reached in the sampled fluid or tissue. The term bioavailability denotes dose-corrected exposure relative to a reference, in per cent.

Regarding `NC[C@H]1CC[C@H](C(=O)O)CC1` [TXA, trans-4-(aminomethyl) cyclohexanecarboxylic acid], the AUC(0-inf) is 81500 to 90300 ng·h/mL in series [1] (pig, plasma, im, 1 g, swine Group 3: 1 g TXA IM, n=5, read-out: AUCINF_pred range); 84800 ng·h/mL in series [1] (pig, plasma, im, 1 g, swine Group 3: 1 g TXA IM, n=5, read-out: mean AUCINF_pred (converted)); 134000 to 148000 ng·h/mL in series [1] (pig, plasma, im, 2 g, swine Group 4: 2 g TXA IM, n=5, read-out: AUCINF_pred range); 141000 ng·h/mL in series [1] (pig, plasma, im, 2 g, swine Group 4: 2 g TXA IM, n=5, read-out: mean AUCINF_pred (converted)); 74000 ng·h/mL in series [1] (pig, plasma, iv, 1 g, swine Group 2: 1 g TXA IV, n=5, read-out: mean AUCINF_pred (converted)). Also, the Tmax was 15 to 120 min in series [1] (pig, plasma, im, 1 g, swine Group 3: 1 g TXA IM, n=5, read-out: Tmax range); 44 min in series [1] (pig, plasma, im, 1 g, swine Group 3: 1 g TXA IM, read-out: mean Tmax (converted)); 30 to 60 min in series [1] (pig, plasma, im, 2 g, swine Group 4: 2 g TXA IM, n=5, read-out: Tmax range); 41.8 min in series [1] (pig, plasma, im, 2 g, swine Group 4: 2 g TXA IM, read-out: mean Tmax (converted)); 11 to 12 min in series [1] (pig, plasma, iv, 1 g, swine Group 2: 1 g TXA IV, n=5, read-out: Tmax range); 11.2 min in series [1] (pig, plasma, iv, 1 g, swine Group 2: 1 g TXA IV, read-out: mean Tmax (converted)). Also, the Cmax in series [1] (pig, plasma, im, 1 g) lay within 20100 to 34800 ng/mL; in series [1] (pig, plasma, im, 2 g), 35700 to 47000 ng/mL; in series [1] (pig, plasma, iv, 1 g), 40900 to 78500 ng/mL. This compound also gave a bioavailability in series [1] (pig, plasma, intramuscular, 1 g) of over 100%. Moreover, the “mean peak plasma concentration (mean concentration-time curve, FIG. 9)” value in series [1] (swine Group 2, n=5: 1 g TXA IV, 10 mL of 100 mg/mL TRANEX injection pH 6.5-8 over 10 min) stood at 64 µg/mL; in series [1] (swine Group 3, n=5: 1 g TXA IM, 2 mL of 500 mg/mL formulation A pH 3-4), 24.2 µg/mL; in series [1] (swine Group 4, n=5: 2 g TXA IM, 4 mL of 500 mg/mL formulation A pH 3-4) it was 41 µg/mL. Further, the “time of mean peak plasma concentration” value in series [1] (swine Group 2: 1 g TXA IV, time from end of 10 min IV injection) is recorded as 1 min; in series [1] (swine Group 3: 1 g TXA IM, post dosing), at most 20 min; in series [1] (swine Group 4: 2 g TXA IM, post dosing), at most 45 min. The “duration of effective plasma concentration (FIG. 13)” value in series [1] (swine, 1 g IM TXA) was “about 130 minutes”; in series [1] (swine, 1 g IV TXA), “about 80 minutes”; in series [1] (swine, 2 g IM TXA) it was “about 200 minutes”. For the same compound, the dose proportionality result in series [1] (swine, 1 g versus 2 g IM) is recorded as “exhibits dose proportionality”. Also, the “time effective TXA levels are maintained (FIG. 13 legend)” value in series [1] (swine, IM administration) is reported as over 130 min; in series [1] (swine, IV administration), under 105 min. Besides, in series [2] (1 gram IM as two 5 ml (0.5 g each) injections), the “bioavailability of IM TXA” value is on record as 77%. The “tolerability of IM injections” value in series [2] (1 gram IM as two 5 ml injections) was “well-tolerated”. Also, in series [2] (after IM injection of 1 gram), the “time to therapeutic plasma concentrations” value is at most 15 min. Also, the “TXA concentration in blood or plasma giving substantial inhibition of fibrinolysis” value in the series with fibrinolysis is 10 to 15 µg/mL.

For `OCc1ccccc1` [benzyl alcohol], the cutaneous anesthesia entry in series [3] (intradermal 1 ml 0.9% benzyl alcohol with epinephrine) is on record as “prolonged cutaneous anesthesia”. Further, the pain on injection entry in series [3] (versus lidocaine with epinephrine) is reported as “significantly less painful on injection”.

Consider `CNC[C@H](O)c1ccc(O)c(O)c1` [epinephrine], for which, in series [4], the short-term survival result is listed as “increased short-term survival”.
